Experiment [1] concerns T1, GLF_1777 (2KGR).
T1 construct: untagged, full-length gene on plasmid pSKR57 in Gluconobacter sp; CHM43 delta-GLF_0478 (strain SKR104)
Nature of the experiment: NADH oxidation at […] nm, soluble cell extract of overexpressing strain. The class given is biochemical, Gluconobacter sp. CHM43. As to conditions: co-substrate 2KG; standard assay 10 mM K-2-ketogluconate, 50 mM Na-acetate pH 6.0, 25°C.

In experiment [2] the test system is T1, GLF_1777 (2KGR). Nature of the experiment: NADPH oxidation at […] nm, soluble cell extract of overexpressing strain. The following applies: co-substrate 2KG; standard assay 10 mM K-2-ketogluconate, 50 mM Na-acetate pH 6.0, 25°C. The class given is biochemical, Gluconobacter sp. CHM43.

SMILES strings stand for the structures.

Regarding `NC(=O)C1=CN([C@@H]2O[C@H](COP(=O)(O)OP(=O)(O)OC[C@H]3O[C@@H](n4cnc5c(N)ncnc54)[C@H](O)[C@@H]3O)[C@@H](O)[C@H]2O)C=CC1` [NADH], in the experiment with GLF_1777 (2KGR) [1], the Km (in general, the concentration of substrate that gives half-maximal velocity) is 100 ± 9 µM.

With `NC(=O)C1=CN([C@@H]2O[C@H](COP(=O)(O)OP(=O)(O)OC[C@H]3O[C@@H](n4cnc5c(N)ncnc54)[C@H](OP(=O)(O)O)[C@@H]3O)[C@@H](O)[C@H]2O)C=CC1` [NADPH], the Km in the experiment with GLF_1777 (2KGR) [2] is 3 ± 0.4 µM.

Source of the values: publication PMC11837542, “Two NADPH-dependent 2-ketogluconate reductases involved in 2-ketogluconate assimilation in Gluconobacter sp. strain CHM43” (Applied and Environmental Microbiology, 2025).
